Legend:
Rac-1 = molecular target: T1, Rac-1 (Homo sapiens, UniProt P63000); assay: Ras GTP Binding Domain Inhibition Assay (Ras Superfamily Assay); conditions: read-out: Rac-1: % inh.
T1 construct: made in house
In short: (§1)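 Ni-plate capture of His-tagged protein (10-30 μg/mL, o/n 4° C); cpd 20 μM or dilution series, 1% DMSO, 3 h RT ± Sos 556-1049 last h; 100 nM Cy-labelled GTP 45 min RT; 3× wash; fluorescence read.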

KRas wild type = assay: as above; conditions: 20 μM compound; for KRas wild type + SOS: % inh.: with SOS; for KRas wild type: % inh.: without SOS
In short: as §1

KRas G12D mutant = assay: as above; conditions: 20 μM compound; for KRas G12D mutant + SOS: % inh.: with SOS; for KRas G12D mutant: % inh.: without SOS
In short: as §1

Erk1/2 phosphorylation = assay: Erk1/2 Phosphorylation Assay (western blot), Panc-1; format: cell-based, human; conditions: at 10 μM, * = activation
In short: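 Phospho-Erk1/2 (Thr202/Tyr204) was detected by western blot in lysates of Panc-1 cells (KRas G12D). These had 6 h, 37° C exposure to 10 μM compound or a dilution series for IC50, in 0.3% DMSO. Cells were either starved overnight in 0.5% FBS with a 15-min 1.5 ng/ml EGF pulse, or kept unstimulated in 10% FBS.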

TNF-alpha = TNF-alpha Quantification Assay (ELISA), LPS-stimulated RAW 264.7; format: cell-based; conditions: Mus musculus, RAW264.7; at 10 μM; read-out: TNFα: % inh.
IL6 = assay: IL-6 Quantification Assay (ELISA), LPS-stimulated RAW 264.7; format: cell-based; parameters: inhibition: dose or concentration left out as unconfirmed; conditions: Mus musculus, RAW264.7; read-out: IL-6: % inh.

inhibition at 20 µM (Rac-1) [%] | KRas wild type + SOS: % inh. (KRas wild type) | KRas wild type: % inh. (KRas wild type) | KRas G12D mutant + SOS: % inh. (KRas G12D mutant) | KRas G12D mutant: % inh. (KRas G12D mutant) | Structure (SMILES) | % inh of Erk1/2 phosphorylation in Panc-1 (Erk1/2 phosphorylation) | inhibition at 10 µM (TNF-alpha) [%] | inhibition (IL6) [%]
76 to 100 | D (D = 76-100% inhibition) | D (D = 76-100% inhibition) | D (D = 76-100% inhibition) | D (D = 76-100% inhibition) | Cc1c(-c2ccn(C3CC3)n2)cn2nc(-c3nccn3C)nc(Nc3cc(OC4CC4)ccn3)c12 [Compound 142, N-(4-Cyclopropoxypyridin-2-yl)-6-(1-cyclopropyl-1H-pyrazol-3-yl)-5-methyl-2-(1-methyl-1H-imidazol-2-yl)pyrrolo[2,1-f][1,2,4]triazin-4-amine] | C (50-84% inhibition) | 0 | 25 to 49
76 to 100 | D (D = 76-100% inhibition) | D (D = 76-100% inhibition) | D (D = 76-100% inhibition) | D (D = 76-100% inhibition) | Cc1c(-c2ccn(C3CC3)n2)cn2nc(-c3nccn3C)nc(Nc3ccccn3)c12 [Compound 143, 6-(1-Cyclopropyl-1H-pyrazol-3-yl)-5-methyl-2-(1-methyl-1H-imidazol-2-yl)-N-(pyridin-2-yl)pyrrolo[2,1-f][1,2,4]triazin-4-amine] | D* (85-100% activation) | 50 to 74 | 75 to 100
76 to 100 | D (D = 76-100% inhibition) | C (C = 50-75% inhibition) | D (D = 76-100% inhibition) | D (D = 76-100% inhibition) | Cc1ccnc(Nc2nc(-c3nccn3C)nn3cc(-c4ccn(C5CC5)n4)c(C)c23)c1 [Compound 144, 6-(1-Cyclopropyl-1H-pyrazol-3-yl)-5-methyl-2-(1-methyl-1H-imidazol-2-yl)-N-(4-methylpyridin-2-yl)pyrrolo[2,1-f][1,2,4]triazin-4-amine] | A (1-25% inhibition) | 1 to 24 | 25 to 49
76 to 100 | D (D = 76-100% inhibition) | D (D = 76-100% inhibition) | D (D = 76-100% inhibition) | D (D = 76-100% inhibition) | Cc1c(-c2ccn(C3CC3)n2)cn2nc(-c3nccn3C)nc(Nc3cc(N(C)C)ccn3)c12 [Compound 145, N^2-(6-(1-Cyclopropyl-1H-pyrazol-3-yl)-5-methyl-2-(1-methyl-1H-imidazol-2-yl)pyrrolo[2,1-f][1,2,4]triazin-4-yl)-N^4,N^4-dimethylpyridine-2,4-diamine] | C* (46-84% activation) | 1 to 24 | 50 to 74
76 to 100 | D (D = 76-100% inhibition) | D (D = 76-100% inhibition) | D (D = 76-100% inhibition) | D (D = 76-100% inhibition) | Cc1c(-c2ccn(C3CC3)n2)cn2nc(-c3nccn3C)nc(Nc3cc(OCCO)ccn3)c12 [Compound 146, 2-((2-((6-(1-Cyclopropyl-1H-pyrazol-3-yl)-5-methyl-2-(1-methyl-1H-imidazol-2-yl)pyrrolo[2,1-f][1,2,4]triazin-4-yl)amino)pyridin-4-yl)oxy)ethan-1-ol] | D* (85-100% activation) | 1 to 24 | 0

Second part, the compound before the results:

Structure (SMILES) | inhibition at 20 µM (Rac-1) [%] | KRas wild type + SOS: % inh. (KRas wild type) | KRas wild type: % inh. (KRas wild type) | KRas G12D mutant + SOS: % inh. (KRas G12D mutant) | KRas G12D mutant: % inh. (KRas G12D mutant) | % inh of Erk1/2 phosphorylation in Panc-1 (Erk1/2 phosphorylation) | inhibition at 10 µM (TNF-alpha) [%] | inhibition (IL6) [%]
Cc1c(-c2ccn(C3CC3)n2)cn2nc(-c3nccn3C)nc(O)c12 [Compound 134, 6-(1-Cyclopropyl-1H-pyrazol-3-yl)-5-methyl-2-(1-methyl-1H-imidazol-2-yl)pyrrolo[2,1-f][1,2,4]triazin-4-ol] | 1 to 25 | 0 (0 = 0% inhibition) | 0 (0 = 0% inhibition) | A (A = 1-25% inhibition) | A (A = 1-25% inhibition) | B (26-49% inhibition) | 1 to 24 | 1 to 24
COc1cc(Nc2nc(-c3nccn3C)nn3cc(-c4ccn(C5CC5)n4)c(C)c23)ncn1 [Compound 135, 6-(1-Cyclopropyl-1H-pyrazol-3-yl)-N-(6-methoxypyrimidin-4-yl)-5-methyl-2-(1-methyl-1H-imidazol-2-yl)pyrrolo[2,1-f][1,2,4]triazin-4-amine] | 76 to 100 | D (D = 76-100% inhibition) | D (D = 76-100% inhibition) | D (D = 76-100% inhibition) | D (D = 76-100% inhibition) | D* (85-100% activation) | 1 to 24 | 25 to 49
Cc1c(-c2ccn(C)n2)cn2nc(-c3nccn3C)nc(Nc3cc(OC(C)C)ccn3)c12 [Compound 136, N-(4-Isopropoxypyridin-2-yl)-5-methyl-2-(1-methyl-1H-imidazol-2-yl)-6-(1-methyl-1H-pyrazol-3-yl)pyrrolo[2,1-f][1,2,4]triazin-4-amine] | 76 to 100 | D (D = 76-100% inhibition) | C (C = 50-75% inhibition) | D (D = 76-100% inhibition) | D (D = 76-100% inhibition) | D* (85-100% activation) | 1 to 24 | 25 to 49
COc1ccnc(Nc2nc(-c3nccn3C)nn3cc(-c4ccn(C5CC5)n4)c(C)c23)c1 [Compound 137, 6-(1-Cyclopropyl-1H-pyrazol-3-yl)-N-(4-methoxypyridin-2-yl)-5-methyl-2-(1-methyl-1H-imidazol-2-yl)pyrrolo[2,1-f][1,2,4]triazin-4-amine] | 50 to 75 | B (B = 26-49% inhibition) | C (C = 50-75% inhibition) | B (B = 26-49% inhibition) | C (C = 50-75% inhibition) | B* (26-49% activation) | 1 to 24 | 1 to 24
Cc1c(-c2ccn(C3CC3)n2)cn2nc(-c3nccn3C)nc(Nc3cc(OC(F)(F)F)ccn3)c12 [Compound 138, 6-(1-Cyclopropyl-1H-pyrazol-3-yl)-5-methyl-2-(1-methyl-1H-imidazol-2-yl)-N-(4-(trifluoromethoxy)pyridin-2-yl)pyrrolo[2,1-f][1,2,4]triazin-4-amine] | 50 to 75 | D (D = 76-100% inhibition) | C (C = 50-75% inhibition) | D (D = 76-100% inhibition) | D (D = 76-100% inhibition) | D* (85-100% activation) | 0 | 50 to 74
Cc1c(-c2ccn(C3CC3)n2)cn2nc(-c3nccn3C)nc(Nc3cc(OC(F)F)ccn3)c12 [Compound 139, 6-(1-Cyclopropyl-1H-pyrazol-3-yl)-N-(4-(difluoromethoxy)pyridin-2-yl)-5-methyl-2-(1-methyl-1H-imidazol-2-yl)pyrrolo[2,1-f][1,2,4]triazin-4-amine] | 76 to 100 | D (D = 76-100% inhibition) | D (D = 76-100% inhibition) | D (D = 76-100% inhibition) | D (D = 76-100% inhibition) | D* (85-100% activation) | 1 to 24 | 50 to 74
Cc1c(-c2ccn(C3CC3)n2)cn2nc(-c3nccn3C)nc(Nc3cc(OCC(F)(F)F)ccn3)c12 [Compound 140, 6-(1-Cyclopropyl-1H-pyrazol-3-yl)-5-methyl-2-(1-methyl-1H-imidazol-2-yl)-N-(4-(2,2,2-trifluoroethoxy)pyridin-2-yl)pyrrolo[2,1-f][1,2,4]triazin-4-amine] | 76 to 100 | C (C = 50-75% inhibition) | C (C = 50-75% inhibition) | D (D = 76-100% inhibition) | C (C = 50-75% inhibition) | D* (85-100% activation) | 0 | 50 to 74
CCOc1ccnc(Nc2nc(-c3nccn3C)nn3cc(-c4ccn(C5CC5)n4)c(C)c23)c1 [Compound 141, 6-(1-Cyclopropyl-1H-pyrazol-3-yl)-N-(4-ethoxypyridin-2-yl)-5-methyl-2-(1-methyl-1H-imidazol-2-yl)pyrrolo[2,1-f][1,2,4]triazin-4-amine] | 76 to 100 | B (B = 26-49% inhibition) | C (C = 50-75% inhibition) | D (D = 76-100% inhibition) | D (D = 76-100% inhibition) | B (26-49% inhibition) | 0 | 25 to 49

From US12459951B2, “Compounds that interact with RAS superfamily proteins for treatment of cancers, inflammatory diseases, rasopathies, and fibrotic disease” (SHY Therapeutics, LLC, priority 2022, dated 2025)
